Values quoted from earlier work, collected in US12569475B2, “Method for eradicating helicobacter pylori infection in patients regardless of body mass index” (RedHill Biopharma Ltd., priority 2020, dated 2026).
≈ marks a conversion by molar mass, not a printed value. Where a name gives a salt, the structure may show the parent alone. Read-outs that look alike come from different tables or passages of the source.

Structure (SMILES) | solubility in methanol | solubility in water (water at 25° C.) [µg/mL] | solubility in chloroform (chloroform) | solubility in ethanol (ethanol) | solubility in water (water) [µg/mL]
COc1ccc2[nH]c([S+]([O-])Cc3ncc(C)c(OC)c3C)nc2c1 (racemic) [Omeprazole magnesium, 5-methoxy-2-[[(4-methoxy-3,5-dimethyl-2-pyridyl)methyl]sulfinyl]benzimidazole, (RS) magnesium salt (2:1)] | soluble | 250 | – | – | –
CO[C@H]1/C=C/O[C@@]2(C)Oc3c(C)c(O)c4c(c3C2=O)C2=NC3(CCN(CC(C)C)CC3)NC2=C(NC(=O)/C(C)=C\C=C\[C@H](C)[C@H](O)[C@@H](C)[C@@H](O)[C@@H](C)[C@H](OC(C)=O)[C@@H]1C)C4=O [Rifabutin, (9S,12E,14S,15R,16S,17R,18R,19R,20S,21S,22E,24Z)-6-16,18,20-tetrahydroxy-1′-isobutyl-14-methoxy-7,9,15,17,19,21,25-heptamethylspiro [9,4-(epoxypentadeca[1,11,13]trienimino)-2H-furo[2′,3′:7,8]naphth[1,2-d]imidazole-2,4′-piperidine]-5,10,26-(3H,9H)-trione-16-acetate] | soluble | – | soluble | sparingly soluble | 190 (≈ 224 µM)
